Data: US20160177259A1, “[…]” (Evonik Degussa GmbH, priority 2014, published 2016)

System: Clostridium ljungdahlii
Assay: Autotrophic production in carbonate buffer on synthesis gas with 0.4 g/l or no L-cysteine HCl (Example 2)
Type: cell-based
Conditions: for Acetate (NMR) / Ethanol (NMR) / OD600 / Δp: reactor 2, 0.4 g/L L-Cysteine-HCl
Experimental: For the production, anaerobic carbonate buffer (adjusted with KOH 1.87 g/L) was used.
Identical autotrophic productions were carried out in 500 mL septum bottles with 100 mL of carbonate carried out in a shaking water bath shaker (open Innova 3100 by New Brunswick Scientific) at 100 min^−1. The productions were carried out at 37° C. with manual control of the pH. Once the pH dropped below 5.5, KOH was metered from a stock solution of 187 g/L. In the present experiments the pH in both reactors at points in time of 50.3 h and 73.3 h were taken and corrected by the addition of each 1.87 g/L KOH manually.
The reactors were inoculated with a synthesis gas mixture of 67% H2 and 33% CO2 pressurized with an overpressure of 0.8 bar. To replenish the consumed gas, the gas atmosphere was completely replaced once a day in the headspace of the reactors and again pressured to 0.8 bars.
The reactor 1 contained a concentration of L-cysteine HCl of 0 g/L, and reactor 2 a concentration of L-cysteine HCl of 0.4 g/L.
The reactors started with autotrophic cells at an OD of 0.2. The pre-culture was carried out continuously in a 1 L bottle with 500 ml of complex medium. The complex medium comprised of 1 g/l NH4Cl, 0.1 g/l KCl, 0.2 g/l MgSO4×7 H2O, 0.8 g/l NaCl, 0.1 g/l KH2PO4, 20 mg/l CaCl2×2 H2O, 20 g/l MES, 1 g/l yeast extract, 0.4 g/L L-cysteine HCl, 20 mg/l nitrilotriacetic acid, 10 mg/l MnSO4 H2O x, 8 mg/l (NH4)2Fe(SO4)2×6 H2O, 2 mg/L CoCl2×6 H2O, 2 mg/l ZnSO4×7 H2O, 0.2 mg/l CuCl2×2H2O, 0.2 mg/l Na2MoO4×2 H2O, 0.2 mg/l NiCl2×6 H2O, 0.2 mg/l Na2SeO4, 0.2 mg/l Na2WO4×2 H2O, 20 μg/l d-biotin, 20 μg/L folic acid, 100 μg/l pyridoxine HCl, 50 μg/l thiamine-HCl×H2O. 50 μg/l of riboflavin, 50 μg/l nicotinic acid, 50 μg/l Ca-pantothenate, 1 μg/L of vitamin B12, 50 μg/l p-aminobenzoate, 50 μg/l lipoic acid. The gassing of the culture with synthesis gas (67% H2, 33% CO2) was carried out continuously at a flow rate of 3 l/h over a filter with pore size of 10 microns. The cells were in late log phase of growth at an OD of 0.23 anaerobically centrifuged (4500 rpm, 4300 g, 20° C., 10 min). The supernatant was discarded and the cell pellet resuspended in 10 ml carbonate buffer. The prepared cells were then used to inoculate the actual experiments.
When sampling each 5 ml sample was removed for determination of 0D600, pH and the product range. The determination of the product concentration was performed by quantitative ^1H-NMR spectroscopy. As an internal quantification standard sodium trimethylsilylpropionate (T(M)SP) was used.

Cl.N[C@@H](CS)C(=O)O [L-Cysteine-HCl, L-cysteine hydrochloride]
concentrations of ethanol and acetate formed (0.4 g/L compared with no L-cysteine-HCl, end of 98.8 h reaction time): higher | Acetate (NMR) (0.0 h): 15 mg/L | Ethanol (NMR) (0.0 h): 5 mg/L | OD600 (0.0 h): 0.18 | Acetate (NMR) (26.0 h): 1714 mg/L | Ethanol (NMR) (26.0 h): 21 mg/L | OD600 (26.0 h): 0.18 | Δp (26.0 h): 0.6 bar | Acetate (NMR) (50.3 h): 2471 mg/L | Ethanol (NMR) (50.3 h): 91 mg/L | OD600 (50.3 h): 0.19 | Δp (50.3 h): 0.5 bar | OD600 (74.3 h): 0.18 | Δp (74.3 h): 0.4 bar | Acetate (NMR) (98.8 h): 3366 mg/L | Ethanol (NMR) (98.8 h): 84 mg/L | OD600 (98.8 h): 0.18 | Δp (98.8 h): 0.2 bar | gas consumption (reactor 2 with 0.4 g/L compared with 0 g/L L-cysteine-HCl, over 98.8 h): higher
